Experimental data taken from patent US20180016593A1, “HERBICIDE-RESISTANT SUNFLOWER PLANTS, POLYNUCLEOTIDES ENCODING HERBICIDE-RESISTANT ACETOHYDROXYACID SYNTHASE LARGE SUBUNIT PROTEINS, AND METHODS OF USE” (priority 2005, published 2018).

Tests used:
[1] = system: Clearfield sunflower variety A; test: Greenhouse spray injury rating (Example 5); assay type: in vivo; settings: variety A, 14 DAT
Description: (§1) Methods: Sunflower lines S4897, Clearfield® sunflower varieties A, B, C and a conventional non-Clearfield variety were sprayed with three rates of imazamox (Raptor™), 100, 200 and 300 gm ai/ha plus 0.5% Sun It II and two rates of imazapyr (Arsenal™) 160 and 360 gm ai/ha plus 0.5% Sun It II when the plants were at the two to three leaf stage. Ratings were taken at 14 days after application (DAT) for injury. Injury was rated on a scale from 0 to 9 where […] to 9=dead plant. Twelve plants were sprayed per herbicide/rate treatment. Statistical analysis was conducted with STATGRAPHICS Plus 5.0 by using ANOVA and LSD procedures.
(§2) Results: After plants were sprayed, it was realized that a height difference between S4897 and other sunflower varieties would have impacted the actual herbicide dose that was delivered. The spray boom height had been calibrated against S4897 and since the other varieties were taller and closer to the boom they would have received a greater dose of herbicide. Rates were recalibrated for the other varieties to determine the approximate dose they would have received. Assessments were made as presented in Table 2 since it was not possible to make a direct rate comparison due to the effect of the height. For example injury scores were compare for S4897 treated imazamox rate 100 gm ai/ha to the other varieties treated at 75 gm ai/ha. The treatment dose of 300 gm ai/ha for line S4897 was equivalent to the treatment of 200 gm ai/ha for the other varieties, which approximately was 300 gm ai/ha.

[2] = system: Clearfield sunflower variety B; test: Greenhouse spray injury rating (Example 5); assay type: in vivo; settings: variety B, 14 DAT
Description: as §1, §2

[3] = system: Clearfield sunflower variety C; test: Greenhouse spray injury rating (Example 5); assay type: in vivo; settings: variety C, 14 DAT
Description: as §1, §2

[4] = system: Sunflower line S4897; test: Greenhouse spray injury rating (Example 5); assay type: in vivo; settings: 14 DAT
Description: as §1, §2

[5] = system: conventional non-Clearfield variety; test: Greenhouse spray injury rating (Example 5); assay type: in vivo; settings: non-Clearfield, 14 DAT
Description: as §1, §2

[6] = system: AHAS of S4897 sunflower plants (Ala107-to-Thr); test: AHAS activity inhibition (Example 5); assay type: biochemical, Helianthus annuus; settings: higher concentration of imazamox; compared to a Clearfield sunflower and conventional non Clearfield variety (FIG. 7)
Experimental: AHAS activity analysis was also conducted by selecting actively growing young leaves from plants that were not sprayed with herbicide at approximately four weeks after planting.

[7] = system: S4897 sunflower plants; test: Greenhouse spray treatment with imazamox (FIG. 3, FIG. 4); assay type: in vivo, Helianthus annuus; settings: imazamox 100 or 200 g ai/ha, evaluated 17 days after application
Experimental: (§3) The S4897 and IMISUN-1 sunflower plants were spray-treated with imazamox at rate of 200 g ai/ha. […] The photograph was taken a few days after the plants were spray treated.
(§4) FIG. 4 is graphical illustration of herbicide injury in a greenhouse test following the spray treatment of IMISUN-1, wild-type, and S4897 sunflower plants with imazamox at either 100 (light columns) or 200 g ai/ ha (dark columns). […] Herbicide injury was evaluated 17 days after the imazamox application.

[8] = system: wild-type sunflower plants; test: as above; assay type: in vivo, Helianthus annuus; settings: imazamox at either 100 or 200 g ai/ha
Experimental: as §3, §4

[9] = system: S4897 plants; parameters: species or system Helianthus annuus; settings: in vivo
Experimental: In field trials in Argentina, S4897 plants were tested for resistance to imazapic. […] This trial had single row plots and was treated on a windy day, so the actual herbicide dose reaching the plants was likely less than was applied.

## COCc1cnc(C2=NC(C)(C(C)C)C(=O)N2)c(C(=O)O)c1 (stereo not shown) [imazamox]
[1]; imazamox 75 gm ai/ha (100/75)
  Injury (scale 0 to 9): 4.3 c
[1]; imazamox 150 gm ai/ha (column 200/150)
  Injury (scale 0 to 9): significantly in juried and had stopped growing
[1]; imazamox 150 gm ai/ha (column 200/150), listed as Imazamox
  Injury (scale 0 to 9): 4.6 c
[1]; imazamox 300 gm ai/ha
  Injury (scale 0 to 9): 6.5 days
[2]; imazamox 75 gm ai/ha (100/75)
  Injury (scale 0 to 9): 1.9 b
[2]; imazamox 150 gm ai/ha
  Injury (scale 0 to 9): 4.8 c
[2]; imazamox 300 gm ai/ha
  Injury (scale 0 to 9): 5.3 c
[3]; imazamox 75 gm ai/ha (100/75)
  Injury (scale 0 to 9): 1.8 b
[3]; imazamox 150 gm ai/ha
  Injury (scale 0 to 9): 2.9 b
[3]; imazamox 300 gm ai/ha
  Injury (scale 0 to 9): 4.6 b
[4]; imazamox 100 gm ai/ha + 0.5% Sun It II, 0 no injury, 9 dead plant
  Injury (scale 0 to 9): 0.5 a
[4]; imazamox 200 gm ai/ha
  Injury (scale 0 to 9): little to no injury
[4]; imazamox 200 gm ai/ha, listed as Imazamox
  Injury (scale 0 to 9): 0.8 a
[4]; imazamox 300 gm ai/ha
  Injury (scale 0 to 9): very little injury
[4]; imazamox 300 gm ai/ha, listed as Imazamox
  Injury (scale 0 to 9): 0.8 a
[5]; imazamox 75 gm ai/ha (100/75)
  Injury (scale 0 to 9): 7.2 days
[5]; imazamox 150 gm ai/ha
  Injury (scale 0 to 9): 8.2 days
[5]; imazamox 300 gm ai/ha
  Injury (scale 0 to 9): 8.7 e
[6]
  inhibition of AHAS activity: less inhibition
[7]
  herbicide injury (resistance or tolerance vs IMISUN-1 and wild-type): significantly greater resistance or tolerance
[8]
  survival after spray treatment: did not survive

## Cc1cnc(C2=NC(=O)C(C)(C(C)C)N2)c(C(=O)O)c1 (stereo not shown) [imazapic]
[9]
  resistance to imazapic compared with IMISUN-1: clearly superior
